In patent EP3609473B1, “ORAL COMPOSITIONS FOR THE TREATMENT OF IRON […]” (Labomar S.p.A., priority 2017, dated 2018):

Details: after SGF, 50 ml simulated intestinal fluid (SIF) added, pH settled at 6.0 with NaOH 2.5% w/v
Procedure: The solid composition (A) is maintained for 90 minutes (corresponding to the empty stomach emptying time) in a simulated gastric environment (SGF) pH 1.5 by adding HCl, thermostated at 37°C.
Subsequently, 50 ml of simulated intestinal fluid (SIF) are added to the system to simulate the transit in the first intestinal tract and the pH is settled at 6.0 with NaOH 2.5% w/v.

## NCC(=O)[O-].NCC(=O)[O-].[Fe+2] [bisglycinate iron, ferrous bisglycinate]
  colour of the liquid (purple = iron in reduced form; amber = no more reducible ferric oxides): amber-coloured liquid
